“Also recorded” adds a separate entry of the source.
What was measured:
Type in all cases: cell-based, rat
O-2As = test: Methylene blue counts of individual cell types: O-2As; settings: BM-D9, 24 h
Description: (§1) Methylene blue (3,7-bis (dimethylamino)-phenothiazin-5-ium chloride), a ribonucleic acid (RNA) binding agent commonly used as an alternative nucleic acid stain, can also be used as a biological staining agent to stain cells in order to observe their morphological features. At 24 h, cells were fixed in 2% paraformaldehyde for 15 min at room temperature. Briefly, cells were washed twice with PBS and 100 μl of 1% methylene blue (Mallinckrodt Chemical Co., MO, USA) solution containing 1% AgNO3 was added for 10 min to the wells containing coverslips. Subsequently, the coverslips were washed with two changes of distilled water and absolute ethanol, cleared with xylene and mounted on slides with permount.
(§2) Cell counts were performed for 25 randomly chosen 100 power fields on each coverslip. Two randomly generated coordinates drawn from a uniform distribution of random numbers specified the center of each field. The random numbers were generated on a computer by using Microcal Origin 4.0 program. […] Three coverslips was counted for each treatment condition. In subsequent experiments, different cell types (for example, O-2A progenitors, PROLs, OLs and astrocytes) were morphologically identified on each field and were counted separately for experimental series-I and II. […]

[1] = tested on: mitochondrial membrane potential (ΔψM) of oligodendroglial cells; test: CMTMR estimation of mitochondrial membrane potential by confocal microscopy; settings: BM + 10^−9 M, 18 h
Description: The ΔψM was assessed by the addition of a lipophilic, potentiometric dye, chloromethyl-tetramethylrhodamine methyl ester (CMTMR, Mitotracker Orange™ Molecular Probes, Eugene, Oreg.). The CMTMR dye reacts with the thiol groups on proteins and peptides to form aldehyde fixable conjugates. Entry of the negatively charged mitochondrial matrix compartment is proportional to the difference in the membrane potential. Therefore, the CMTMR fluorescence labels the mitochondrial membrane potential generated due to the negativity difference between the mitochondrial matrix and the outside of the mitochondria. Upon cell fixation, CMTMR remains in the mitochondria and is not washed out unlike other mitochondrial potentiometric dyes like rhodamine123.
Oligodendrocytes at 16 DIV were placed in trophically deprived BM for 18 h or treated with BM-D9 or BM-Ds9. […] The cells were incubated in CMTMR at 37° C. for 15 min. The cells were then fixed with 4% cold paraformaldehyde on ice for 30 min and washed twice with 0.1M PBS. Consequently, the coverslips were mounted on glass slides with Aquamount (Gurr, England).
Individual mitochondria labeled with CMTMR were resolved by confocal microscopy. A Leica true confocal scanning (TCS) 4D microscope coupled to an argon-krypton laser (Omnichrome, USA) was used for cell imaging. A pinhole size of 20 with an excitation filter wavelength of 568 nm and an emission filter wavelength of 590 nm was used to image the CMTMR labeled mitochondria. Each field of the coverslip was imaged using an oil-immersion, 100 X, 1.3 N.A. objective at 512 by 512 by 8 bits per pixel resolution, background offset of −1 and line averaged 32 times in bi-directional line scan mode. Care was taken not to exceed the dynamic range of the gray value display. The confocal images obtained were saved on an optical drive in a tagged image file format (TIFF).
Fluorescence intensity of individual mitochondria was measured using the Metamorph™ program. Metamorph™ compiles measurements of objects in a 8-bit image ranging from gray values 0 (background) and 255. In order to obtain fluorescence intensity measures, a rectangular region tool of 2×2 pixels was used to measure two randomly selected areas within each mitochondrion. A total of ten mitochondria obtained equally from all the regions of each cell were measured within each image. About 20 images were analyzed for each treatment condition thereby giving a sum of about 400 mitochondrial fluorescence intensity measures. The raw values were then further graphed and analyzed with the Microcal Origin 4.1 program. Frequency count was performed on the data, which classified the data in ordered bins. A frequency distribution was obtained with lower bin value set at 0 and higher bin value set at 260.

oligodendroglial cells = test: In situ DNA end labeling (ApopTag), counts of apoptotic nuclei; settings: 6, 12, 15, 18, 24 h, both experimental series
Description: The ApopTag™ method utilizes an ApopTag™ in situ apoptosis detection kit (Oncor, Md., USA), which detects nuclei with, cut 3′-OH ends of DNA. Oligodendrocytes at 16 DIV were treated with BM, BM-D9, IM and IM-D9 for 6, 12, 15, 18 and 24 h. Cells were fixed in 2% paraformaldehyde, followed by three washes in 0.1M PBS and permeabilization with 0.05% Tween-20 in PBS for 10 min at room temperature. Endogenous peroxidase was quenched with 1% H2O2 in PBS for 5 min at room temperature. Coverslips were then covered with 1 X equilibration buffer for 30 min at room temperature and then incubated with terminal deoxynucleotidyl transferase (TdT)/reaction buffer (76 μl of reaction buffer+32 μl of TdT enzyme) for 1 h at 37° C. A stop wash buffer incubation for 30 min at 37° C. was used to terminate the 3′-OH DNA extension reaction. After a PBS wash, the coverslips were incubated with antidigoxigenin peroxidase antibody. After three washes with 0.1M PBS, chromogenic detection was carried out using DAB (1.5 mg/ml) mixed with hydrogen peroxide (H2O2; 0.02% v/v) yielding a brown reaction product. Coverslips were dehydrated in ascending grade alcohol series, cleared with xylene and mounted on slides using a drop of permount. ApopTag™ positive nuclei were randomly counted in triplicate (described in section 2.5), for each of the time points, for experimental series-I and II.

PROLs = test: Methylene blue counts of individual cell types: PROLs; settings: BM-D9, 24 h
Description: as §1, §2

SMILES: C#CCN(C)[C@H](C)Cc1ccccc1 [(−)-deprenyl, R-(−)-N,α-Dimethyl-N-2-propynyl phenethylamine]
- O-2A cell numbers compared to those in BM (O-2As; experimental series II): 176%
- O-2A cell numbers compared to those in BM (O-2As; experimental series-I): 244%
- mitochondrial CMTMR fluorescence distributions (ΔψM) in ASTs, PROLs and OLs [1]: not significantly different to those found for IM; also recorded: prevented the decrease in ΔψM
- number of ApopTag positive nuclei (oligodendroglial cells; 10^−9 M added to IM): did not significantly change the number of ApopTag™ positive nuclei
- number of ApopTag positive nuclei (oligodendroglial cells; 10^−9 M added to base media (BM)): significantly decreased the numbers of ApopTag™ nuclei in both experimental series
- number of ApopTag positive nuclei (oligodendroglial cells; 10^−9 M added to base media (BM), listed as (−)-Deprenyl): reduced the incidence of apoptotic nuclei at all the time points
- PROL cell numbers compared to those in BM (PROLs; experimental series II): 275%
- PROL cell numbers compared to those in BM (PROLs; experimental series-I): 739.2%

Reference: patent publication US6492427B2, “Methods for treating multiple sclerosis” (priority 1998, dated 2002)
